Legend:
Test in all cases: relative viability (nuclei count vs DMSO), 5 days (fraction); higher = more cells survive
Calu-6 = tested on: Calu-6
Summary of the method: (§1)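 Five library-drug doses in √10 steps were combined with a fixed anchor-drug dose, or a single drug was given alone, by pin tool to lung cancer cell lines in 1536-well plates the day after seeding. Nuclei were stained and counted after 5 days. Relative viability is the nuclei count in treated wells over that in vehicle wells, taken as the median of duplicate plates.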

NCI-H1437 = tested on: NCI-H1437
Summary of the method: as §1

NCI-H1299 = tested on: NCI-H1299
Summary of the method: as §1

NCI-H596 = tested on: NCI-H596
Summary of the method: as §1

IA-LM = tested on: IA-LM
Summary of the method: as §1

NCI-H1703 = tested on: NCI-H1703
Summary of the method: as §1

A549 = tested on: A549
Summary of the method: as §1

LCLC-97TM1 = tested on: LCLC-97TM1
Summary of the method: as §1

EBC-1 = tested on: EBC-1
Summary of the method: as §1

NCI-H1355 = tested on: NCI-H1355
Summary of the method: as §1

Cc1csc(=NC2CCCCC2)n1/N=C/c1ccc(O)c(O)c1O [MIM1] + CC1(C)CCC(c2ccc(Cl)cc2)=C(CN2CCN(c3ccc(C(=O)NS(=O)(=O)c4ccc(N[C@H](CCN5CCOCC5)CSc5ccccc5)c(S(=O)(=O)C(F)(F)F)c4)cc3)CC2)C1 [Navitoclax] (partner 0.5 µM)
relative viability (Calu-6; first compound 0.2 µM): 0.772
relative viability (Calu-6; first compound 0.6325 µM): 0.93
relative viability (Calu-6; first compound 2 µM): 0.857
relative viability (Calu-6; first compound 6.325 µM): 0.205
relative viability (Calu-6; first compound 20 µM): 0.135
relative viability (NCI-H1437; first compound 0.2 µM): 0.989
relative viability (NCI-H1437; first compound 0.6325 µM): 1.1
relative viability (NCI-H1437; first compound 2 µM): 0.998
relative viability (NCI-H1437; first compound 6.325 µM): 0.654
relative viability (NCI-H1437; first compound 20 µM): 0.27
relative viability (NCI-H1299; first compound 0.2 µM): 1.06
relative viability (NCI-H1299; first compound 0.6325 µM): 1.07
relative viability (NCI-H1299; first compound 2 µM): 1.04
relative viability (NCI-H1299; first compound 6.325 µM): 1.05
relative viability (NCI-H1299; first compound 20 µM): 0.974
relative viability (NCI-H596; first compound 0.2 µM): 0.935
relative viability (NCI-H596; first compound 0.6325 µM): 0.921
relative viability (NCI-H596; first compound 2 µM): 0.895
relative viability (NCI-H596; first compound 6.325 µM): 0.806
relative viability (NCI-H596; first compound 20 µM): 0.7
relative viability (IA-LM; first compound 0.2 µM): 0.588
relative viability (IA-LM; first compound 0.6325 µM): 0.713
relative viability (IA-LM; first compound 2 µM): 0.721
relative viability (IA-LM; first compound 6.325 µM): 0.195
relative viability (IA-LM; first compound 20 µM): 0.0808
relative viability (NCI-H1703; first compound 0.2 µM): 0.91
relative viability (NCI-H1703; first compound 0.6325 µM): 1.15
relative viability (NCI-H1703; first compound 2 µM): 1.03
relative viability (NCI-H1703; first compound 6.325 µM): 0.135
relative viability (NCI-H1703; first compound 20 µM): 0.117
relative viability (A549; first compound 0.2 µM): 1.17
relative viability (A549; first compound 0.6325 µM): 1.24
relative viability (A549; first compound 2 µM): 1.3
relative viability (A549; first compound 6.325 µM): 0.843
relative viability (A549; first compound 20 µM): 0.0781
relative viability (LCLC-97TM1; first compound 0.2 µM): 0.567
relative viability (LCLC-97TM1; first compound 0.6325 µM): 0.398
relative viability (LCLC-97TM1; first compound 2 µM): 0.397
relative viability (LCLC-97TM1; first compound 6.325 µM): 0.48
relative viability (LCLC-97TM1; first compound 20 µM): 0.203
relative viability (EBC-1; first compound 0.2 µM): 0.417
relative viability (EBC-1; first compound 0.6325 µM): 0.475
relative viability (EBC-1; first compound 2 µM): 0.367
relative viability (EBC-1; first compound 6.325 µM): 0.227
relative viability (EBC-1; first compound 20 µM): 0.166
relative viability (NCI-H1355; first compound 0.2 µM): 0.977
relative viability (NCI-H1355; first compound 0.6325 µM): 1.03
relative viability (NCI-H1355; first compound 2 µM): 1.07
relative viability (NCI-H1355; first compound 6.325 µM): 0.793
relative viability (NCI-H1355; first compound 20 µM): 0.95

Cc1csc(=NC2CCCCC2)n1/N=C/c1ccc(O)c(O)c1O [MIM1] + Cc1nc(NC(=O)N2CCC[C@H]2C(N)=O)sc1-c1ccnc(C(C)(C)C(F)(F)F)c1 [Alpelisib] (partner 2 µM)
relative viability (Calu-6; first compound 0.2 µM): 0.971
relative viability (Calu-6; first compound 0.6325 µM): 1.02
relative viability (Calu-6; first compound 2 µM): 0.813
relative viability (Calu-6; first compound 6.325 µM): 0.339
relative viability (Calu-6; first compound 20 µM): 0.208
relative viability (NCI-H1437; first compound 0.2 µM): 0.843
relative viability (NCI-H1437; first compound 0.6325 µM): 0.935
relative viability (NCI-H1437; first compound 2 µM): 0.959
relative viability (NCI-H1437; first compound 6.325 µM): 0.592
relative viability (NCI-H1437; first compound 20 µM): 0.289
relative viability (NCI-H1299; first compound 0.2 µM): 1.01
relative viability (NCI-H1299; first compound 0.6325 µM): 1.05
relative viability (NCI-H1299; first compound 2 µM): 1.06
relative viability (NCI-H1299; first compound 6.325 µM): 1.01
relative viability (NCI-H1299; first compound 20 µM): 0.87
relative viability (NCI-H596; first compound 0.2 µM): 0.491
relative viability (NCI-H596; first compound 0.6325 µM): 0.501
relative viability (NCI-H596; first compound 2 µM): 0.525
relative viability (NCI-H596; first compound 6.325 µM): 0.497
relative viability (NCI-H596; first compound 20 µM): 0.48
relative viability (IA-LM; first compound 0.2 µM): 0.829
relative viability (IA-LM; first compound 0.6325 µM): 0.805
relative viability (IA-LM; first compound 2 µM): 0.644
relative viability (IA-LM; first compound 6.325 µM): 0.266
relative viability (IA-LM; first compound 20 µM): 0.148
relative viability (NCI-H1703; first compound 0.2 µM): 0.329
relative viability (NCI-H1703; first compound 0.6325 µM): 0.34
relative viability (NCI-H1703; first compound 2 µM): 0.352
relative viability (NCI-H1703; first compound 6.325 µM): 0.171
relative viability (NCI-H1703; first compound 20 µM): 0.123
relative viability (A549; first compound 0.2 µM): 0.69
relative viability (A549; first compound 0.6325 µM): 0.879
relative viability (A549; first compound 2 µM): 0.79
relative viability (A549; first compound 6.325 µM): 0.56
relative viability (A549; first compound 20 µM): 0.102
relative viability (LCLC-97TM1; first compound 0.2 µM): 0.255
relative viability (LCLC-97TM1; first compound 0.6325 µM): 0.258
relative viability (LCLC-97TM1; first compound 2 µM): 0.207
relative viability (LCLC-97TM1; first compound 6.325 µM): 0.26
relative viability (LCLC-97TM1; first compound 20 µM): 0.129
relative viability (EBC-1; first compound 0.2 µM): 0.801
relative viability (EBC-1; first compound 0.6325 µM): 0.862
relative viability (EBC-1; first compound 2 µM): 0.785
relative viability (EBC-1; first compound 6.325 µM): 0.531
relative viability (EBC-1; first compound 20 µM): 0.296
relative viability (NCI-H1355; first compound 0.2 µM): 0.89
relative viability (NCI-H1355; first compound 0.6325 µM): 0.805
relative viability (NCI-H1355; first compound 2 µM): 0.924
relative viability (NCI-H1355; first compound 6.325 µM): 0.672
relative viability (NCI-H1355; first compound 20 µM): 0.359

— the supplement of paper PMC10307832
